# Molecular target: T1, BCL6 (Homo sapiens, UniProt P41182)
# T1 construct: endogenous in cells; host or cells: T47D breast cancer epithelial cells
# Assay: Immunofluorescence high content imaging of BCL6 degradation in T47D cells
# Type: cell-based
# Conditions: T47D breast cancer epithelial cells, 3 days incubation
# Method in brief: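 T47D breast cancer cells treated 3 days at 37 °C with an 11-point 3-fold dilution series (top final 0.1 or 1 μM). Fixed with 4% PFA, Triton-permeabilised, stained with anti-BCL6 rabbit antibody plus Alexa-488 secondary, CellMask and Hoechst; imaged at 10×, 4 fields/well.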
Compound,DC50 [nM],Dmax [%]
"CNC(=O)COc1cc2cc(Nc3nc(N4CCC(O[C@H]5C[C@H](N6CCN(c7cc(C)c8c(c7)CN(C7CCC(=O)NC7=O)C8=O)CC6)C5)CC4)ncc3Cl)ccc2n(C(C)C)c1=O (stereo partly drawn) [Compound 36, 2-({6-[(5-chloro-2-{4-[(1r,3r)-3-{4-[2-(2,6-dioxopiperidin-3-yl)-7-methyl-1-oxo-3H-isoindol-5-yl]piperazin-1-yl}cyclobutoxy]piperidin-1-yl}pyrimidin-4-yl)amino]-1-isopropyl-2-oxoquinolin-3-yl}oxy)-N-methylacetamide]",< 10,50 to 70
"CNC(=O)COc1cc2cc(Nc3nc(N4CCC(O[C@H]5C[C@H](N6CCC(c7cc(C)c8c(c7)CN(C7CCC(=O)NC7=O)C8=O)CC6)C5)CC4)ncc3Cl)ccc2n(C(C)C)c1=O (stereo partly drawn) [Compound 37, 2-({6-[(5-chloro-2-{4-[(1r,3r)-3-{4-[2-(2,6-dioxopiperidin-3-yl)-7-methyl-1-oxo-3H-isoindol-5-yl]piperidin-1-yl}cyclobutoxy]piperidin-1-yl}pyrimidin-4-yl)amino]-1-isopropyl-2-oxoquinolin-3-yl}oxy)-N-methylacetamide]",< 10,≥ 70
"CNC(=O)COc1cc2cc(Nc3nc(N4CCC(O[C@H]5C[C@H](N6CC[C@@H](c7cc(C)c8c(c7F)CN([C@H]7CCC(=O)NC7=O)C8=O)[C@@H](F)C6)C5)CC4)ncc3Cl)ccc2n(C(C)C)c1=O [Compound 38, 2-({6-[(5-chloro-2-{4-[(1r,3r)-3-[(3R,4S)-4-{2-[(3S)-2,6-dioxopiperidin-3-yl]-4-fluoro-7-methyl-1-oxo-3H-isoindol-5-yl}-3-fluoropiperidin-1-yl]cyclobutoxy]piperidin-1-yl}pyrimidin-4-yl)amino]-1-isopropyl-2-oxoquinolin-3-yl}oxy)-N-methylacetamide]",< 10,50 to 70
"CNC(=O)COc1cc2cc(Nc3nc(N4CCC(O[C@H]5C[C@H](N6CC[C@H](c7cc(C)c8c(c7F)CN([C@H]7CCC(=O)NC7=O)C8=O)[C@H](F)C6)C5)CC4)ncc3Cl)ccc2n(C(C)C)c1=O [Compound 39, 2-({6-[(5-chloro-2-{4-[(1r,3r)-3-[(3S,4R)-4-{2-[(3S)-2,6-dioxopiperidin-3-yl]-4-fluoro-7-methyl-1-oxo-3H-isoindol-5-yl}-3-fluoropiperidin-1-yl]cyclobutoxy]piperidin-1-yl}pyrimidin-4-yl)amino]-1-isopropyl-2-oxoquinolin-3-yl}oxy)-N-methylacetamide]",< 10,≥ 70
"CNC(=O)COc1cc2cc(Nc3nc(N4CCN(C(=O)CC5(O)CCN(c6ccc7c(c6F)CN(C6CCC(=O)NC6=O)C7=O)CC5)CC4)ncc3Cl)ccc2n(C(C)C)c1=O (stereo not drawn) [Compound 40, 2-{[6-({5-chloro-2-[4-(2-{1-[2-(2,6-dioxopiperidin-3-yl)-4-fluoro-1-oxo-3H-isoindol-5-yl]-4-hydroxypiperidin-4-yl}acetyl)piperazin-1-yl]pyrimidin-4-yl}amino)-1-isopropyl-2-oxoquinolin-3-yl]oxy}-N-methylacetamide]",< 10,≥ 70
"CNC(=O)COc1cc2cc(Nc3nc(N4CCC(O)(CC(=O)N5CCN(c6ccc7c(c6F)CN(C6CCC(=O)NC6=O)C7=O)CC5)CC4)ncc3Cl)ccc2n(C(C)C)c1=O (stereo not drawn) [Compound 41, 2-{[6-({5-chloro-2-[4-(2-{4-[2-(2,6-dioxopiperidin-3-yl)-4-fluoro-1-oxo-2,3-dihydro-1H-isoindol-5-yl]piperazin-1-yl}-2-oxoethyl)-4-hydroxypiperidin-1-yl]pyrimidin-4-yl}amino)-2-oxo-1-(propan-2-yl)-1,2-dihydroquinolin-3-yl]oxy}-N-methylacetamide]",< 10,≥ 70
"CNC(=O)COc1cc2cc(Nc3nc(N4CCC(CN5CCC(N6CCN(c7ccc8c(c7F)CN(C7CCC(=O)NC7=O)C8=O)CC6)C(F)(F)C5)CC4)ncc3Cl)ccc2n(C(C)C)c1=O (stereo not drawn) [Compound 42, 2-({6-[(5-chloro-2-{4-[(4-{4-[2-(2,6-dioxopiperidin-3-yl)-4-fluoro-1-oxo-3H-isoindol-5-yl]piperazin-1-yl}-3,3-difluoropiperidin-1-yl)methyl]piperidin-1-yl}pyrimidin-4-yl)amino]-1-isopropyl-2-oxoquinolin-3-yl}oxy)-N-methylacetamide]",< 10,50 to 70
"CNC(=O)COc1cc2cc(Nc3nc(N4CCC(CN5CCC(N6CCC(c7ccc8c(c7F)CN(C7CCC(=O)NC7=O)C8=O)CC6)C(F)(F)C5)CC4)ncc3Cl)ccc2n(C(C)C)c1=O (stereo not drawn) [Compound 43, 2-{[6-({5-chloro-2-[4-({4-[2-(2,6-dioxopiperidin-3-yl)-4-fluoro-1-oxo-2,3-dihydro-1H-isoindol-5-yl]-3′,3′-difluoro-[1,4′-bipiperidin]-1′-yl}methyl)piperidin-1-yl]pyrimidin-4-yl}amino)-2-oxo-1-(propan-2-yl)-1,2-dihydroquinolin-3-yl]oxy}-N-methylacetamide]",< 10,50 to 70
"CNC(=O)COc1cc2cc(Nc3nc(N4CCC(CN5CCC(C6CCN(c7ccc8c(c7F)CN(C7CCC(=O)NC7=O)C8=O)CC6)C(F)C5)CC4)ncc3Cl)ccc2n(C(C)C)c1=O (stereo not drawn) [Compound 44, 2-{[6-({5-chloro-2-[4-({1′-[2-(2,6-dioxopiperidin-3-yl)-4-fluoro-1-oxo-2,3-dihydro-1H-isoindol-5-yl]-3-fluoro-[4,4′-bipiperidin]-1-yl}methyl)piperidin-1-yl]pyrimidin-4-yl}amino)-2-oxo-1-(propan-2-yl)-1,2-dihydroquinolin-3-yl]oxy}-N-methylacetamide]",< 10,50 to 70

# Source: patent US20240190841A1, “MODULATORS OF BCL6 PROTEOLYSIS AND ASSOCIATED METHODS OF USE” (Arvinas Operations, Inc., priority 2022, published 2024)
